Test results from patent publication US10028992B2, “Methods of treating muscular dystrophy” (BOARD OF REGENTS OF THE NEVADA SYSTEM OF HIGHER EDUCATION …, priority 2012, dated 2018).
Like-named read-outs stand apart in the source and are kept apart here.

Tested on: α7 integrin promoter
Experiment: muscle cell-based assay: α7βgal+/− myoblasts/myotubes, LacZ reporter, β-galactosidase cleavage of FDG
Set-up: species or system mouse
Conditions: for EC50: Mus musculus, read-out: Fit LogAC50 (converted)
Method: An α7 integrin null mouse was produced in which exon 1 of the gene encoding the α7 integrin was replaced by the LacZ reporter. In these mice, all the transcriptional regulatory elements of the α7 integrin promoter were retained, allowing β-galactosidase to report expression of 7 integrin. A primary myoblast cell line (designated α7βgal^+/−) isolated from 10 day old α7^+/− pups were analyzed for the ability of β-galactosidase to report α7 integrin expression. α7βgal^+/− myoblasts were differentiated and subjected to X-gal staining and western analysis (FIGS. 1A and 1B).
The activity of the α7 integrin promoter was measured by β-galactosidase cleavage of the non-fluorescent compound fluorescein di-β-D-galactopyranoside (FDG) to fluorescein. This assay was used to screen compound libraries to identify molecules that up-regulate α7 integrin expression in muscle.
Also evaluated was the effect of various isoforms of laminin and the ligand for α7β1 integrin on integrin expression. Positive hits were subjected to dose-response analysis, western analysis and a myostatin counterscreen (a negative regulator of muscle growth).

[1] = given as log AC50 (negative values)
[2] = curve class number, key not given
[3] = curve fit, activity at zero concentration

Structure (SMILES)	EC50 [1]	Score (Table 12 compound data)	Fit Curve Class [2]	Fit HillSlope (curve fit)	Fit Zero Activity [%] [3]	Fit Infinite Activity [%] (curve fit, activity at infinite concentration)	Fit LogAC50 [1]	Fit Curve Class	Fit HillSlope	Fit Zero Activity [%]	Score	EC50
Cc1c(C(=O)N2CCCCC2)c(S(=O)(=O)Nc2cccc(Br)c2)c(C)n1C [Compound 155]	10 µM	42	2.1	3.99	−32.1225%							
O=S(=O)(N/C(=N/C1CCCCC1)c1ccccc1F)c1ccccc1 [Compound 156]	10 µM	42	2.2	2.5334	−0.0336%							
O=[N+]([O-])c1cccc(S(=O)(=O)N2CCN(S(=O)(=O)N3CCOCC3)CC2)c1 [Compound 158]	10 µM	42	2.2	1.9282	−0.5234%							
CC(=O)Nc1ccc(NC(=O)c2cc(=O)c3cc(C)cc(C)c3o2)cc1 [Compound 159]	11.2 µM	42	2.1	4.095	−2.9033%							
COc1ccc(/C=C(\NC(=O)c2ccc(C)cc2)C(=O)Nc2ccc(C(=O)O)cc2)cc1 [Compound 160]	11.2 µM	42	2.1	4.095	−2.4804%							
O=S(=O)(c1ccccc1)N1CCCC(c2nc(O)c3nnn(Cc4cccc(Cl)c4)c3n2)C1 (stereo not shown) [Compound 161]	3.98 µM	42	2.1	1.1	−42.9418%							
COc1cccc(NC(=O)c2ccc3c(c2)CCCC3)c1 [Compound 162]	5.62 µM	42	2.1	2.2526	−31.8121%							
CN(C)CCNc1ncnc2sc(-c3ccccc3)cc12 [Compound 163]	10 µM	42	2.2	4.045	−0.8551%							
CCCN1C2CCCC1CC(NC(=O)c1cccc([N+](=O)[O-])c1)C2 (stereo not shown) [Compound 164]		42	2.1	4.5045	0.8371%	91.825%	−5					
O=C(NCCc1ccc(F)cc1)N[C@@H](Cc1ccccc1)C(=O)O [Compound 165]	11.2 µM	42	2.1	4.5045	−20.12%							
Cl.O=C(CN1CCOCC1)NCc1cc([N+](=O)[O-])ccc1O [Compound 166]	12.6 µM	42	2.1	1.3987	10.3691%							
COc1cc(Cl)cc(CN2CCC(CCC(=O)NC3CC3)CC2)c1OC [Compound 167]	7.08 µM	42	2.1	1.7885	−38.2233%							
COc1ccccc1C(=O)NCCOc1ccc(C(C)(C)C)cc1 [Compound 168]	8.91 µM	42	2.2	1.9673	−0.7805%							
COc1nccc(NCc2ccccc2)c1C#N [Compound 169]	10 µM	42	2.1	4.4495	−19.7104%							
Cc1ccc(-c2csnn2)cc1 [Compound 170]	10 µM	42	2.1	4.4495	3.4732%							
Cc1nc2c(cnn2-c2ccccc2)c(=O)n1/N=C/c1ccccc1 [Compound 171]	10 µM	42	2.2	3.132	9.9159%							
CN(C)/C(S)=N/c1cccc(C(F)(F)F)c1 [Compound 172]	10 µM	42	2.2	2.3332	8%							
CC(C)(C)N/C=C(\C#N)S(=O)(=O)c1ccc(Br)cc1 [Compound 173]	11.2 µM	42	2.2	0.9	7.5952%							
O=C(O)CCCNC(=O)CCn1nnc2ccccc2c1=O [Compound 174]	11.2 µM	42	2.1	1.8579	−20.386%							
CCNC(=O)COC(=O)c1cc(-c2ccco2)nc2ccccc12 [Compound 175]	5.62 µM	42	2.1	1.3443	−62.687%							
COc1cccc(N2C(=O)CC(N3CCc4ccccc4C3)C2=O)c1 (stereo not shown) [Compound 176]	10 µM	42	2.1	4.9549	−19.4361%							
COC(=O)C1=NNC2(C)C(=O)N(c3ccc(C)cc3)C(=O)C12 (stereo not shown) [Compound 177]	10 µM	42	2.2	4.9549	0.9153%							
CCCOc1nc(SCCC)nc2c1cnn2-c1ccccc1 [Compound 178]	11.2 µM	42	2.1	1.1341	−22.6542%							
COc1ccc(O)c(/C=N/NC(=O)c2cc(O)nc3ccccc23)c1 [Compound 179]	5.62 µM	42	2.1	2.2526	−35.6913%							
CCOc1ccc(NC(=O)CN2C(=O)NC(CCSC)C2=O)cc1 (stereo not shown) [Compound 180]	10 µM	42	2.2	3.1925	−1.6238%							
Br.COc1ccc(C(=O)CN2CCCCC2)cc1 [Compound 181]								2.1	4.9549	12.5%	42	12.6 µM
CNP(=O)(Oc1ccccc1)OC12CC3CC(CC(C3)C1)C2 (stereo not shown) [Compound 182]								2.1	2.2481	−0.8571%	42	10 µM
O=C(CCc1ccccc1)c1nnc(-c2ccccc2)o1 [Compound 183]	10 µM	42	2.1	4.4495	1.0471%							
COc1ccc(CNC(=O)COC(=O)CCc2c[nH]c3ccccc23)cc1 [Compound 184]	10 µM	42	2.1	2.9023	−0.6011%							
COc1ccccc1OCC(=O)N/N=C1/C=C(C)CC1 [Compound 185]	10 µM	42	2.1	4.9549	−23.4705%							
